Reference: patent US7635722B1, “Chemical induced intracellular hyperthermia” (priority 1998, dated 2009)

Columns and labels:
[1] = test system: metastatic, hormone-refractory prostate carcinoma; experiment: DNP with methylene blue, prostate carcinoma (Example 9); type: in vivo, human
Procedure: Pretreatment protocol: the patient was transfused with 2 units of packed red blood cells 48 hours prior to undergoing treatment. Intravenous fluids (Lactated Ringer's solution) were administered at a rate of 100 cc/hour. The patient was dressed in comfortable cotton clothing and placed in an air-conditioned room. Equipment for monitoring heart rate and rhythm, temperature and oxygen consumption was utilized as outlined in Example 1. An oral breathing tube was used to conduct TEEM VO2 measurements. Oxygen supplementation and “crash cart” was available at bedside.
Treatment protocol: baseline VO2 measurements for 8 minutes established an average VO2 of 250 cc/minute. DNP, at a dose of 2 mg/kg, was infused intravenously over a 2 minute period. Repeat VO2 at 20 minutes was stabilized at 340-360 cc/minute. An additional 1 mg/kg DNP infusion was administered, and 15 minutes thereafter the VO2 increased and stabilized at 420 cc/minute. Ten minutes thereafter, an infusion of methylene blue, 2 mg/kg (dissolved in a […] pyrogen-free isotonic saline solution-35 ml) was administered over 20 minutes.
By hour 3, VO2 declined to the 360-380 cc/minute range. An additional 1 mg/kg dose of DNP was infused over a 2 minute period. […] Rectal probe temperature increased to a maximum of 1.3° C. over baseline. […] The protocol was repeated every other day for a total of 15 treatments (30 days). Therapy was discontinued for 2 weeks and the cycle was again repeated for an additional 30 days, treatment being administered every other day.

[2] = test system: candida; experiment: DNP hyperthermia, oral candidiasis (Example 2); type: in vivo, human
Procedure: (§1) Pretreatment protocol: all medications were stopped 2 weeks prior to treatment. The patient refused taking diazepam, placement of a Foley catheter and oxygen face mask. They dressed themself into a dry cold water immersion suit (Stearns, ISS-590I, Universal Adult) designed to prevent heat loss and modified for easy placement of physiologic monitors. Equipment for measurement of heart rate, temperature, carbon dioxide production and Kcal of heat produced were conducted as outlined in Example 1. An oral breathing tube was used to measure V02 from room air. Urine output was measured when the patient voluntarily urinated through a “Texas” catheter (superficial condom tightly fitted around the head of the penis with tubing connected to urine collection bag). The patient was informed that hyperthermia would be administered as tolerated by their stamina and monitored clinical parameters, not to exceed 5 hours, on a daily or every other day basis, for a total of 5 sessions.
Treatment procedure: Baseline reading for 5 minutes established an average V02 of 300 cc/min. An initial dose of 2 mg/kg of DNP was administered over a 2 minute period. V02 increased and stabilized at 15 minutes at 340-380 cc/min. An additional 2 mg/kg DNP infusion was given, the V02 increased and stabilized at 610-630 cc/min. […]

[3] = test system: breast lesion; experiment: DNP enhanced infrared imaging, breast carcinoma (Example 8); type: in vivo, human
Procedure: Prediagnostic protocol: the patient was disrobed to the waist and sat with their hands interlocked over their head for a five minute equilibration period in a draft free, thermally controlled room—kept between 18° C. and 20° C. […] A baseline of 4 images consisting of an anterior, undersurface and 2 lateral views of each breast were generated by an integrated infrared imaging station consisting of a scanning mirror optical system containing a mercury-cadmium-telluride detector (Bales Scientific, CA). […] Images were stored on retrievable laser discs.
Diagnostic treatment protocol: after the above baseline studies were performed, the patient was given an initial intravenous dose of 1 mg/kg DNP and observed for a period of 20 minutes. An additional 2 mg/kg of DNP was then administered and 30 minutes thereafter, they were taken to the thermally controlled room for repeat DNP-enhanced infrared imaging. […] Repeat infrared images were then obtained under the exact protocol used for obtaining baseline studies.

[4] = test system: inner mitochondrial membrane; settings: lowered from −180; cited from earlier work
[5] = test system: hepatitis C virus; experiment: DNP with interferon-alpha, chronic hepatitis C (Example 10); type: in vivo, human
Procedure: Pretreatment protocol: each evening prior to treatment the patient was instructed not to eat after 7 pm and dress in cotton clothes. Approximately 6 hours prior to intravenous DNP administration they were to be given 1.5 million units of subcutaneous interferon-alpha every 3rd day. Repeat blood work, including CBC and platelet count, AST, ALT, and hepatitis C-RNA levels would be initially obtained at 48 hours and weekly thereafter. No efforts were to be made to prevent body heat loss. A single intravenous line was placed with a 21-gauge interacath. Heart rate, rectal thermistor, and VO2 monitoring was conducted during therapy as outlined.
Treatment procedure: the patient presented themself for outpatient treatment and was given a subcutaneous dose of 1.5 million units of interferon-alpha. Approximately 6 hours thereafter, at 1 pm, a baseline VO2 recording of 5 minutes was 160 cc/min. They were infused with 1 mg/kg DNP over a 2 minute period. At 20 minutes, their VO2 increased and stabilized at approximately 210 cc/min. A second dose of 1 mg/kg DNP was infused and the VO2 peaked 20 minutes later at 250 cc/min. An additional dose of 2.0 mg/kg DNP was given 30 minutes following the second dose. […] The patient's rectal temperature increased and never exceeded 1.3° C. above their normal baseline. Two hours after their last dose of DNP, their VO2 declined to 280 cc/min. An additional 2 mg/kg dose of DNP was administered. The patients VO2 increased and stabilized 20 minutes thereafter to a level of 420 cc/min. […] Throughout treatment the patient was permitted to drink fluids ad libitum. […] The 5 day treatment protocol was repeated after a 2 day “DNP rest period”. This regimen was repeated times 3. Subcutaneous interferon-alpha was administered for a total of 10 weeks.

[6] = test system: HIV; experiment: DNP hyperthermia, HIV disease (Example 2); type: in vivo, human
Procedure: as §1
Treatment procedure: Baseline reading for 5 minutes established an average V02 of 300 cc/min. An initial dose of 2 mg/kg of DNP was administered over a 2 minute period. V02 increased and stabilized at 15 minutes at 340-380 cc/min. An additional 2 mg/kg DNP infusion was given, the V02 increased and stabilized at 610-630 cc/min. […] Norepinephrine bitartrate (Levophed) was given IV drip at a dose of 1 microgram/min. and adjusted to maintain blood pressure at 130/80. Approximately 1 minute after initiating the vasopressor, heart rate increased from 90 to 100 and V02 to 0.85 liters/min. […] V02 was maintained at 1.0 liters/min. by lowering or increasing the dose of norepinephrine. An additional infusion of 1 mg/kg DNP was given at hour 4 to correct a dropping V02. On occasions when the core temperature increased above 41.6° C., a lower extremity was exposed for evaporative heat loss. […] The protocol was repeated consecutively for 5 days without the additional use of vasopressors.

## O=[N+]([O-])c1ccc(O)c([N+](=O)[O-])c1 [DNP, 2,4-dinitrophenol]
[1]; 6th day following therapy, DNP with methylene blue
  bone pain: decrease in their low back, hip and other areas of bone pain
[1]; 6 weeks after treatment
  PSA values: 30 ng/mL
[1]; 10 weeks after initiation of treatment
  tumor necrotic on prostatic biopsy: 95%
[1]; by 2 weeks
  analgesic use: off all narcotic (morphine) analgesics
[1]; day 8
  acid phosphatase: remained unchanged
  increase in PSA level: approximately 120%
[1]; day 8, pretreatment 58 ng/ml
  PSA level: 125 ng/mL
[1]; end of month 4, oral DNP 250 mg twice a day after IV therapy
  repeat prostate biopsy: very few intact acini or viable acinar cells
[1]; three months after initiation of therapy
  weight gained: 8.2 kg
[2]; 3rd day of therapy
  oral candidiasis: no evidence of oral candidiasis
[2]; immediately after the first treatment
  improvement of oral candidiasis: 50%
[3]; DNP enhanced infrared imaging
  bilateral global breast temperature increase: approximately 0.5 °C
  increase in temperature in the palpable right breast lesion: 2.5 °C
[3]; lesion versus global breast increase of 0.5° C.
  increase in heat production above the DNP baseline increase: 5 fold
[4]
  inner mitochondrial membrane potential: −145 mV
[5]; 18 months after therapy
  ALT: normalization
  HCV viral genome: remained cleared from their bloodstream
[5]; after 48 hours, DNP with interferon-alpha
  decrease of hepatitis C-RNA viral load: approximately 2 logs
[5]; at 48 hours, elevated until week 3
  increase of alanine transaminase (ALT) levels: 7 fold
[5]; at 48 hours, pretreatment levels at day 7
  increase of alkaline phosphatase levels: 2 fold
[5]; during treatment
  CBC, bilirubin, and blood urea nitrogen (BUN): remained within normal limits
[5]; over the next 5 days
  further decrease of viral load: an additional log
[5]; week 2 and thereafter
  HCV-RNA: undetectable
[6]; 2 weeks post-treatment
  lymphadenopathy: resolved
[6]; 4, 6 and 12 weeks post-treatment
  HIV RNA: non-detectable
[6]; by week 4, stable at week 6 and 12, pretreatment 250/mm^3
  CD4+ T cell lymphocyte counts: 380-420 cells/mm^3
[6]; immediately after treatment day 5, pretreatment 400,000 copies/ml
  viral load: 50,000 HIV-RNA copies/ml
